Where two headings read alike, the source gives them in different places.
How the values were obtained:
[1] = test system: established skin fibrosis in Tsk-mice; experiment: Tight skin (Tsk-1) mouse model of systemic sclerosis (Example C): dermal thickness, hydroxyproline assay, αSMA immunohistochemistry; type: in vivo; details: for hypodermal thickness / Collagen content / Myofibroblast count: oral gavage, x-fold change with respect to vehicle-treated wild type mice; for hypodermal thickness: five weeks of treatment; for Collagen content: hydroxyproline assay; for Collagen content / Myofibroblast count: five weeks; for Myofibroblast count: αSMA positive cells
Experimental: (§1) The injected skin areas were fixed in 4% formalin and embedded in paraffin. Histological sections were stained with hematoxylin and eosin for the determination of dermal thickness. The dermal thickness was determined by measuring the largest distance between the epidermal-dermal junction and the dermal-subcutaneous fat junction. The measurements were performed by an examiner blinded to the treatment of the mice.
(§2) To analyze the collagen content in skin samples, hydroxyproline assay was performed. After digestion of punch biopsies (Ø 3mm) in 6M HCl for three hours at 120°C, chloramine T (0.06 M) was added and samples were mixed and incubated for 20 min at room temperature. 3.15 M perchloric acid and 20 % p-dimethylaminobenzaldehyde were added and samples were incubated for additional 20 min at 60 °C. The absorbance was determined at 557 nm.
(§3) The expression of α-smooth muscle actin (αSMA) was analyzed in paraffin embedded sections. After deparaffinization, samples were incubated with 3% bovine serum albumin followed by incubation with 3% H2O2. αSMA positive cells in mouse sections were detected by incubation with monoclonal anti-αSMA antibodies (clone 1A4, Sigma-Aldrich, Steinheim, Germany). Irrelevant isotype antibodies in the same concentration were used for control (Santa Cruz Biotechnology, Santa Cruz, CA, USA). Antibodies labeled with horseradish peroxidase (Dako, Hamburg, Germany) were used as secondary antibodies. The expression of the NICD and αSMA was visualized with DAB peroxidase substrate solution (Sigma-Aldrich). The number of myofibroblasts was counted from 4 different sections of lesional skin for each mouse by an examiner blinded to the treatment of the mice. Table 1: Effects of example 1A on development of Bleomycin-induced skin fibrosis.
In addition to the mouse model of bleomycin-induced dermal fibrosis, the tight-skin (Tsk-1) mouse model of systemic sclerosis was used to evaluate the anti-fibrotic potential of test drugs. Due to a dominant mutation in fibrillin-1, the phenotype of Tsk-1 is characterized by an increased hypodermal thickness. Genotyping of Tsk-1 mice was performed by PCR with the following primers: mutated fibrillin-1/ Tsk-1 forward primer: 5' - […] - 3', reverse primer: 5' - […] - 3'. Tsk-1 mice were treated daily with test drug or vehicle, respectively, by oral gavage. In addition, a group of corresponding wild type(pa/pa) mice was treated with vehicle. The treatment was started at an age of five weeks. After five weeks of treatment, mice were sacrificed by cervical dislocation and skin samples were obtained for analysis.
Histological analysis, hydroxyproline assay and immunhistochemistry for α-smooth muscel actin were performed as described in the Example 1A section. Table 4: Effects of example 1A on established skin fibrosis in Tsk-mice
Fibrosis parameters expressed as x-fold change with respect to vehicle-treated wild type mice

[2] = test system: Bleomycin-induced skin fibrosis; experiment: Bleomycin-induced skin fibrosis, preventive dose-regimen (Example A): dermal thickness, hydroxyproline assay, αSMA immunohistochemistry; type: in vivo, mice; details: for Collagen content: hydroxyproline assay; for Myofibroblast count: αSMA positive cells
Experimental: Local skin fibrosis was induced in 6-week-old, pathogen-free, female DBA/2 mice (Charles River, Sulzfeld, Germany) by repeated (every other day) subcutaneous injections of bleomycin (0,5 mg/ml in saline) in a defined area of the upper back. Control mice were injected in the same manner with saline only and served as reference. For all groups the injection volume was 100 µl. Concomitant to bleomycin treatment, the mice were treated orally with test drug or vehicle. Mice were treated a) with vehicle b) with 1 mg/kg example 1A, and c) with 3 mg/kg example 1A, twice a day via gavage for 21 days. After this 3 weeks treatment period, the animals were sacrificed and skin samples were obtained for analysis.
as §1, §2, §3
Fibrosis parameters expressed as x-fold change with respect to vehicle-treated control

human dermal fibroblasts = experiment: TGFbeta-induced collagen gene expression and hydroxyproline deposition in human dermal fibroblasts in vitro (Example E); type: cell-based
Experimental: The effects of example 1A and vardenafil as standalone and in combination were analyzed in vitro in human dermal fibroblasts in vitro.

[3] = test system: established Bleomycin-induced skin fibrosis; experiment: Established bleomycin-induced skin fibrosis, therapeutic dose-regimen (Example B): dermal thickness, hydroxyproline assay, αSMA immunohistochemistry; type: in vivo, mice
Experimental: as §1, §2, §3
Local skin fibrosis was induced in 6-week-old, pathogen-free, female DBA/2 mice (Charles River, Sulzfeld, Germany) by repeated (every other day) subcutaneous injections of bleomycin (0,5 mg/ml in saline) in a defined area of the upper back. Control mice were injected in the same manner with saline only. For all groups the injection volume was 100 µl. The study comprises 4 arms with • a) mice receiving saline injection for 6 weeks (serving as reference) • b) mice receiving Bleomycin injection for 6 weeks • c) mice receiving Bleomycin injection for 6 weeks and additional treatment with example 1A (3 mg/kg) twice a day via gavage for the last 3 weeks • d) mice receiving the first 3 weeks bleomycin injections and the second 3 weeks saline injection.
After 6 weeks the animals were sacrificed and skin samples were obtained for analysis.
Histological analysis, hydroxyproline assay and immunhistochemistry for α-smooth muscel actin were performed as described in the Example 1A section. Table 3: Effects of example 1A (3mg/kg p.o.) on established Bleomycin-induced skin fibrosis Fibrosis parameters expressed as x-fold change with respect to vehicle-treated control (group a)

[4] = Haemodynamic effects in conscious mice with telemetric implants (Example D); type: in vivo; details: dosages with antifibrotic properties
Experimental: The haemodynamic effects of i.e. example (1A) were analyzed in conscious mice. Telemetric implants (DSI®) were used. Signals were received with RMC1-DSI® receiver plates, compiled and analyzied with PONEMAH® physiology platform software.
The mice received either placebo (tylose), 0.3 mg/kg example 1A, 1mg/kg example 1A, 3mg/kg example 1A (Figure 1). The blood pressure and heart rate was monitored before and after application of placebo or the compounds.

[5] = TSK mice, established fibrosis before start of treatment
[6] = bleomycin-induced SSc in mice, preventive dose-regimen
[7] = Bleomycin + 1 mg/kg example 1A, twice a day via gavage for 21 days, x-fold change with respect to vehicle-treated control
[8] = Bleomycin + 3mg/kg example 1A, twice a day via gavage for 21 days, x-fold change with respect to vehicle-treated control
[9] = Bleomycin 6 weeks + 3 weeks example 1A (3mg/kg p.o., twice a day, last 3 weeks), x-fold change with respect to vehicle-treated control (group a)
[10] = bleomycin-induced SSc in mice, therapeutic dose-regimen after established fibrosis

Structure (SMILES): Nc1nc(-c2nn(Cc3ccccc3F)c3ncccc23)ncc1C1CC1 [Example 1A, 3-(4-Amino-5-cyclopropylpyrimidin-2-yl)-1-(2-fluorobenzyl)-1H-pyrazolo[3,4-b]pyridine]
- dermal thickness [1, 5]: significantly reduced
- hydroxyproline content of the skin [1, 5]: significantly reduced
- number of dermal myofibroblasts [1, 5]: significantly reduced
- hypodermal thickness ([1]; Tsk-1 + 1 mg/kg example 1A): 3.46 x-fold change
- hypodermal thickness ([1]; Tsk-1 + 3mg/kg example 1A): 2.88 x-fold change
- Collagen content ([1]; Tsk-1 + 1 mg/kg example 1A): 1.61 x-fold change
- Collagen content ([1]; Tsk-1 + 3mg/kg example 1A): 1.67 x-fold change
- Myofibroblast count ([1]; Tsk-1 + 1 mg/kg example 1A): 2.12 x-fold change
- Myofibroblast count ([1]; Tsk-1 + 3mg/kg example 1A): 1.70 x-fold change
- dermal thickness ([2]; Bleomycin + 1 mg/kg example 1A, twice a day via gavage for 21 days, DBA/2 mice, x-fold change with respect to vehicle-treated control): 1.37 x-fold change
- dermal thickness ([2]; Bleomycin + 3mg/kg example 1A, twice a day via gavage for 21 days, DBA/2 mice, x-fold change with respect to vehicle-treated control): 1.19 x-fold change
- dermal thickness [2, 6]: significantly reduced
- hydroxyproline content of the skin [2, 6]: significantly reduced
- number of dermal myofibroblasts [2, 6]: significantly reduced
- Collagen content [2, 7]: 1.19 x-fold change
- Collagen content [2, 8]: 1.11 x-fold change
- Myofibroblast count [2, 7]: 3.23 x-fold change
- Myofibroblast count [2, 8]: 1.90 x-fold change
- TGF-induced collagen gene expression (human dermal fibroblasts): significantly blocked
- TGFbeta-induced Hydroxyproline (HP) deposition (human dermal fibroblasts): significantly blocked
- TGF-induced collagen gene expression (human dermal fibroblasts; listed as example 1A): blocked
- Myofibroblast count [3, 9]: 1.68 x-fold change
- dermal thickness [3, 9]: 1.26 x-fold change
- dermal thickness [3, 10]: significantly reduced
- hydroxyproline content of the skin [3, 10]: significantly reduced
- number of dermal myofibroblasts [3, 10]: significantly reduced
- heamodynamic profile (blood pressure and heart rate) [4]: did not or only moderately, change

— patent EP2594270A2, “The use of sGC stimulators, sGC activators, alone and combinations with PDE5 inhibitors for the treatment of systemic sclerosis (SSc)” (BIP Patents, priority 2011, dated 2013)
